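Grown in 96-well plates, cells were treated for 48 hours with each compound at five concentrations. Insufficient inhibition: endpoint recorded as highest concentration tested. GI50 is the concentration that inhibits growth by half.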 Activity calls are given as the source filed them. No stated cut-off is given here; in the data, active = GI50 up to about 1.1 µM and inactive = higher.
Assays:
Experiment in all cases: NCI anticancer screen, dose series, 48 h
A498 = tested on: A498
BT-549 = tested on: BT-549
CCRF-CEM = tested on: CCRF-CEM
HCT-116 = tested on: HCT-116
IGROV-1 = tested on: IGROV-1
MCF7 = tested on: MCF7
MDA-MB-435 = tested on: MDA-MB-435
NCI-H23 = tested on: NCI-H23
NCI/ADR-RES = tested on: NCI/ADR-RES
RXF 393 = tested on: RXF 393
SF-268 = tested on: SF-268
SK-MEL-28 = tested on: SK-MEL-28
SN12C = tested on: SN12C
SR = tested on: SR
SW-620 = tested on: SW-620
TK-10 = tested on: TK-10
UACC-62 = tested on: UACC-62
UO-31 = tested on: UO-31

| SMILES | GI50 (A498) | GI50 (BT-549) | GI50 (CCRF-CEM) | GI50 (HCT-116) | GI50 (IGROV-1) | GI50 (MCF7) | GI50 (MDA-MB-435) | GI50 (NCI-H23) | GI50 (NCI/ADR-RES) | GI50 (RXF 393) | GI50 (SF-268) | GI50 (SK-MEL-28) | GI50 (SN12C) | GI50 (SR) | GI50 (SW-620) | GI50 (TK-10) | GI50 (UACC-62) | GI50 (UO-31) |
| --- | --- | --- | --- | --- | --- | --- | --- | --- | --- | --- | --- | --- | --- | --- | --- | --- | --- | --- |
| Cc1cc(NCC2CC/C(=C\C=C\c3ccccc3)C2=O)no1 (stereo not given) | 51.8 µM (inactive) | > 100 µM (inactive) | > 100 µM (inactive) | > 100 µM (inactive) | > 100 µM (inactive) | 63.4 µM (inactive) | > 100 µM (inactive) | > 100 µM (inactive) | 40.5 µM (inactive) | > 100 µM (inactive) | > 100 µM (inactive) | > 100 µM (inactive) | > 100 µM (inactive) | 36.9 µM (inactive) | > 100 µM (inactive) | 84.9 µM (inactive) | 32.1 µM (inactive) | 51.3 µM (inactive) |
| COC(=O)C1C(OS(=O)(=O)O)CCC2CN3CCc4c([nH]c5ccccc45)C3CC21 (stereo not given) | > 100 µM (inactive) | > 100 µM (inactive) | > 100 µM (inactive) | > 100 µM (inactive) | > 100 µM (inactive) | > 100 µM (inactive) | > 100 µM (inactive) | > 100 µM (inactive) | > 100 µM (inactive) | > 100 µM (inactive) | > 100 µM (inactive) | > 100 µM (inactive) | > 100 µM (inactive) | > 100 µM (inactive) | > 100 µM (inactive) | > 100 µM (inactive) | > 100 µM (inactive) | > 100 µM (inactive) |
| COC(=O)CCC(=O)NC1=C(Nc2ccccc2)C(=O)c2ccccc2C1=O | 15 µM (inactive) | 10.6 µM (inactive) | 9.95 µM (inactive) | 9.71 µM (inactive) | 11.5 µM (inactive) | 3.89 µM (inactive) | 1.97 µM (inactive) | 4.28 µM (inactive) | 14.8 µM (inactive) | 8.81 µM (inactive) | 13.2 µM (inactive) | 8.51 µM (inactive) | 13.6 µM (inactive) | 11.4 µM (inactive) | 11.4 µM (inactive) | 22.5 µM (inactive) | 3.67 µM (inactive) | 17.9 µM (inactive) |
| CC(C)(C)C(=O)OCC1CCC[N+]2(C)CCCCC12 (stereo not given) | > 100 µM (inactive) | > 100 µM (inactive) | > 100 µM (inactive) | > 100 µM (inactive) | > 100 µM (inactive) | > 100 µM (inactive) | > 100 µM (inactive) | > 100 µM (inactive) | > 100 µM (inactive) | > 100 µM (inactive) | > 100 µM (inactive) | > 100 µM (inactive) | > 100 µM (inactive) | > 100 µM (inactive) | > 100 µM (inactive) | > 100 µM (inactive) | > 100 µM (inactive) | > 100 µM (inactive) |
| O=c1c2nc(-c3ccccc3)oc2n(-c2ccccc2)c(=O)n1-c1ccccc1 | 25.8 µM (inactive) | 28.4 µM (inactive) | > 46.5 µM (inactive) | 31.7 µM (inactive) | 26.5 µM (inactive) | 45.7 µM (inactive) | > 46.5 µM (inactive) | 43.2 µM (inactive) | 19.1 µM (inactive) | 18.1 µM (inactive) | 20.7 µM (inactive) | > 100 µM (inactive) | 36.2 µM (inactive) | > 31.6 µM (inactive) | > 46.5 µM (inactive) | 15 µM (inactive) | 31.1 µM (inactive) | 22 µM (inactive) |
| COc1ccc2cc1Oc1ccc(cc1)C(Sc1ccccc1)CCOC(=O)CC2 (stereo not given) | > 100 µM (inactive) | > 100 µM (inactive) | > 100 µM (inactive) | > 100 µM (inactive) | > 100 µM (inactive) | > 100 µM (inactive) | > 100 µM (inactive) | > 100 µM (inactive) | > 100 µM (inactive) | > 100 µM (inactive) | > 100 µM (inactive) | > 100 µM (inactive) | > 100 µM (inactive) | > 100 µM (inactive) | > 100 µM (inactive) | > 100 µM (inactive) | > 100 µM (inactive) | > 100 µM (inactive) |
| CCC(N)(C(=O)O)C(C)C (stereo not given) | > 100 µM (inactive) | > 100 µM (inactive) | > 100 µM (inactive) | > 100 µM (inactive) | > 100 µM (inactive) | > 100 µM (inactive) | > 100 µM (inactive) | > 100 µM (inactive) | > 100 µM (inactive) | > 100 µM (inactive) | > 100 µM (inactive) | > 100 µM (inactive) | > 100 µM (inactive) | > 100 µM (inactive) | > 100 µM (inactive) | > 100 µM (inactive) | > 100 µM (inactive) | > 100 µM (inactive) |
| C1=N\CCNCC/N=C/c2ccccc2OCc2cccc(n2)COc2ccccc2/1 | > 100 µM (inactive) | 12 µM (inactive) | 3.33 µM (inactive) | 3.57 µM (inactive) | 24.5 µM (inactive) | 4.13 µM (inactive) | 3.86 µM (inactive) | 12.9 µM (inactive) | 6.21 µM (inactive) | 27.9 µM (inactive) | 12.9 µM (inactive) | 7.85 µM (inactive) | 13.2 µM (inactive) | 4.06 µM (inactive) | 7.05 µM (inactive) | 20.7 µM (inactive) | 6.15 µM (inactive) | 9.12 µM (inactive) |
| [Se]=P(c1ccccc1)(c1ccccc1)c1ccc(C(c2ccccc2)=P(c2ccccc2)(c2ccccc2)c2ccccc2)cc1 | 2.76 µM (inactive) | 0.929 µM (active) | 0.495 µM (active) | 0.6 µM (active) | 0.773 µM (active) | 0.695 µM (active) | 0.671 µM (active) | 0.891 µM (active) | 7.67 µM (inactive) | 1.57 µM (inactive) | 0.514 µM (active) | 2.28 µM (inactive) | 1.23 µM (inactive) | 0.415 µM (active) | 1.19 µM (inactive) | 1.41 µM (inactive) | 1.02 µM (active) | 3.27 µM (inactive) |
| COC(=O)/N=[N+](\[O-])C(c1ccccc1)c1ccccc1 | > 100 µM (inactive) | > 100 µM (inactive) | 82 µM (inactive) | > 100 µM (inactive) | 61.8 µM (inactive) | > 100 µM (inactive) | 31 µM (inactive) | 29.1 µM (inactive) | 40.1 µM (inactive) | 63.8 µM (inactive) | > 100 µM (inactive) | > 100 µM (inactive) | > 100 µM (inactive) | > 100 µM (inactive) | > 100 µM (inactive) | > 100 µM (inactive) | 51.6 µM (inactive) | 13.4 µM (inactive) |
| COC(=O)C1C(O)C(C)C(O)C(C)C=C(C)C2=C3C(=C(C)C(=O)c4c(O)c(c(C)c(OC(C)=O)c43)NC(=O)C(C)=C/C=C\C(C)C(O)C(C)C1O)OCO2 (stereo not given) | 29.4 µM (inactive) | 19.6 µM (inactive) | 23.6 µM (inactive) | 31.8 µM (inactive) | 42.1 µM (inactive) | 25.3 µM (inactive) | 15.7 µM (inactive) | 24.9 µM (inactive) | 40.5 µM (inactive) | 24.9 µM (inactive) | 16.1 µM (inactive) | 22.3 µM (inactive) | 37.4 µM (inactive) | 19.7 µM (inactive) | 23.9 µM (inactive) | 56.1 µM (inactive) | 28 µM (inactive) | 25.9 µM (inactive) |
| O=C(O)[C@@H]1NC[C@H]2C(Br)=NO[C@H]21 | > 100 µM (inactive) | > 100 µM (inactive) | > 100 µM (inactive) | > 100 µM (inactive) | > 100 µM (inactive) | 86.9 µM (inactive) | > 100 µM (inactive) | > 100 µM (inactive) | > 100 µM (inactive) | > 100 µM (inactive) | > 100 µM (inactive) | > 100 µM (inactive) | > 100 µM (inactive) | 23.4 µM (inactive) | > 100 µM (inactive) | 94.8 µM (inactive) | > 100 µM (inactive) | > 100 µM (inactive) |
| C/C(=N\Nc1nc2ccccc2o1)c1ccncn1 | 0.45 µM (active) | 5.19 µM (inactive) | 0.0481 µM (active) | 0.0713 µM (active) | 0.116 µM (active) | 0.0556 µM (active) | 0.247 µM (active) | 0.36 µM (active) | 0.19 µM (active) | 2.29 µM (inactive) | 0.132 µM (active) | 0.513 µM (active) | 0.225 µM (active) | 0.0647 µM (active) | 0.0455 µM (active) | 1.12 µM (active) | 0.28 µM (active) | 0.0479 µM (active) |
| N#C[BH2-][n+]1cn(C2CC(OP(=O)(O)OCC3OC(n4cnc5c(N)ncnc54)CC3O)C(CO)O2)c2nc(N)[nH]c(=O)c21 (stereo not given) | > 100 µM (inactive) | > 100 µM (inactive) | > 100 µM (inactive) | > 100 µM (inactive) | > 100 µM (inactive) | > 100 µM (inactive) | > 100 µM (inactive) | > 100 µM (inactive) | > 100 µM (inactive) | > 100 µM (inactive) | > 100 µM (inactive) | > 100 µM (inactive) | > 100 µM (inactive) | > 100 µM (inactive) | > 100 µM (inactive) | > 100 µM (inactive) | > 100 µM (inactive) | > 100 µM (inactive) |
| COc1ccc(C(=O)c2sc(Nc3ccc(Cl)cc3)nc2N)cc1 | 17 µM (inactive) | > 38.5 µM (inactive) | 2.52 µM (inactive) | 7.66 µM (inactive) | 5.93 µM (inactive) | 4.45 µM (inactive) | 2.2 µM (inactive) | 13.6 µM (inactive) | 5.37 µM (inactive) | 14.1 µM (inactive) | 8.15 µM (inactive) | 29.4 µM (inactive) | 21.6 µM (inactive) | 1.93 µM (inactive) | 5.71 µM (inactive) | 10.1 µM (inactive) | 19.3 µM (inactive) | 38.2 µM (inactive) |
